Data taken from patent US11498930B2 (BLUERAY THERAPEUTICS (SHANGHAI) CO., LTD., priority 2018, dated 2022).
Read-outs that look alike come from different tables or passages of the source.

What was measured:
[1] = test system: phosphorylation level of intracellular protein kinase (ERK) in MOLM13 cells; experiment: Phosphorylated protein kinase (p-ERK) cell experiment (AlphaLISA); assay type: cell-based
Description: The inhibitory activities of the compounds on the phosphorylation level of intracellular protein kinase (ERK) were determined by AlphaLISA method.
Firstly, the cells were treated with the compounds. The compounds to be tested were subjected to 3-fold dilution with 100% DMSO, and a total of 9 different concentration gradients were set. MOLM13 cells were then seeded into 96-well plates at a density of 30,000 cells per well in a volume of 100 µL per well. […] of DMSO or the test compounds with different concentrations was then transferred into each well, setting two duplicates for each concentration, and the final concentration of DMSO was controlled at 0.5%.
Secondly, the cells were lysed. After 2 hours of cell treatment, the medium was removed, and the cells were washed 3 times with phosphate buffered saline. 50 µL of freshly prepared lysis buffer was added to each well, and the plates were shaken and kept at room temperature for 10 minutes.
Thirdly, the phosphorylated extracellular signal-regulated kinase (p-ERK) was detected by AlphaLISA@ SureFire® Ultra™ p-ERK 1/2 (Thr202/Tyr204) kit (Perkin Elmer, ALSU-PERK-A10K). 10 µL of the above lysate was transferred to a 384-well plate (Perkin Elmer, 6005350), and the phosphorylation level of the extracellular signal-regulated kinase of the sample was detected according to the product instructions. The signal was read using AlphaScreen detector on Spectra max i3 (Molecular Devices). The percentage of inhibition (%) was calculated by the following formula: Inhibition percentage(%)=(1−p-ERK signal of compound-treated cells/p-ERK signal of DMSO-treated cells)*100

[2] = target: SHP2^E76A protein (Homo sapiens (Human), UniProt Q06124, E76A); experiment: SHP2 enzyme activity inhibition experiment; assay type: biochemical
Procedure, shortened: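 Compounds tested at 10 concentrations in 3-fold serial dilution. IC50 from a four-parameter Hill-slope nonlinear fit of enzyme activity versus concentration.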

[3] = test system: MOLM-13 cells; experiment: MOLM-13 cell proliferation experiment; assay type: cell-based
Description: After 3 days, 5 µL of CellTiter-Glo reagent (Promega, ZG7572) was added to each well, and the plates were kept at room temperature in the dark for 10 minutes. The […] was detected by Spectra max i3 (Molecular Devices). The relative growth rate of the treated cells was compared with that of DMSO control.

[4] = p-ERK, MOLM13 cells, 2 hours of cell treatment, Tables 2.1 and 2.2, read-out: IC50
[5] = SHP2 enzyme activity, Tables 1.1 and 1.2, read-out: IC50
[6] = Table 4, read-out: SHP2 enzyme activity IC50
[7] = Homo sapiens, MOLM-13, MOLM13 cells, Table 4, read-out: p-ERK IC50
[8] = Homo sapiens, MOLM-13, p-ERK, MOLM13 cells, 2 hours of cell treatment, Tables 2.1 and 2.2, read-out: IC50
[9] = Homo sapiens, MOLM-13, 72 h, MOLM-13 cell proliferation, 3 days, Tables 3.1 and 3.2, read-out: IC50
[10] = Homo sapiens, MOLM-13, read-out: MOLM-13 cell proliferation IC50

Sequence of SHP2^E76A protein (Q06124 whole entry E76A): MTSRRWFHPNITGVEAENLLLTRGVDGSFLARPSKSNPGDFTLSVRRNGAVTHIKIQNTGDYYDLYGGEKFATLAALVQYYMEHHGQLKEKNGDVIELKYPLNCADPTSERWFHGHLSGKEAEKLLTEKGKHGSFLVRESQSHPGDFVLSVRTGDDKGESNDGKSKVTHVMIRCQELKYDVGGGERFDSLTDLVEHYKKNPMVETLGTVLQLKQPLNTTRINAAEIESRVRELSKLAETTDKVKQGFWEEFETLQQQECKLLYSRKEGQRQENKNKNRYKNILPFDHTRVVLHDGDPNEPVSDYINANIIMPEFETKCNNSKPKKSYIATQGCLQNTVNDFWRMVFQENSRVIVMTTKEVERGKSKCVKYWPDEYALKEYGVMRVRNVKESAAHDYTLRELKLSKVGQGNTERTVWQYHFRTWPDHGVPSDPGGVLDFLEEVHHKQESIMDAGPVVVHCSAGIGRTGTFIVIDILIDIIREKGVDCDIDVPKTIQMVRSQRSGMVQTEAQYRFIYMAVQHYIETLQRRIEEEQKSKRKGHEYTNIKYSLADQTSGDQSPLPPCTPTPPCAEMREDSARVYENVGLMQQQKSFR

Row | Compound | IC50 [1, 4] | IC50 [2, 5] | IC50 [2, 6] | IC50 [1, 7] | IC50 [1, 8] | IC50 [3, 9] | IC50 [3, 10] | IC50 ([3]; MOLM-13 cell proliferation, 3 days, Tables 3.1 and 3.2, read-out: IC50) | IC50 ([1]; Homo sapiens, MOLM-13, read-out: p-ERK IC50)
1 | N[C@@H]1CCCC12CCN(c1ncc(Sc3cccc(NC(=O)c4c(O)nc5n(c4=O)CCCC5)c3Cl)c3nccn13)CC2 | < 100 nM | – | – | – | – | – | – | – | –
2 | CC1C[C@@H](N)C2(CCN(c3ncc(Sc4ccnc(N)c4Cl)c4nccn34)CC2)C1 (stereo partly drawn) [(1R)-8-(8-((2-amino-3-chloropyridin-4-yl)thio)imidazo[1,2-c]pyrimidin-5-yl)-3-methyl-8-azaspiro[4.5]decan-1-amine] | – | < 100 nM | 32 nM | 59 nM | < 100 nM | < 100 nM | 54 nM | – | –
3 | COc1ccccc1Sc1cnc(N2CCC3(CCC[C@H]3N)CC2)n2ccnc12 [(R)-8-(8-((2-methoxyphenyl)thio)imidazo[1,2-c]pyrimidin-5-yl)-8-azaspiro[4.5]decan-1-amine] | – | < 100 nM | 83 nM | 469 nM | 100 to 1000 nM | 100 to 1000 nM | 210 nM | – | –
4 | Nc1cc(Sc2cnc(N3CCC4(CCC[C@H]4N)CC3)n3ccnc23)c(Cl)cn1 [(R)-8-(8-((2-amino-5-chloropyridin-4-yl)thio)imidazo[1,2-c]pyrimidin-5-yl)-8-azaspiro[4.5]decan-1-amine] | – | < 100 nM | 25 nM | 32 nM | < 100 nM | < 100 nM | 43 nM | – | –
5 | Nc1cc(Sc2cnc(N3CCC4(CCC[C@H]4N)CC3)n3cnnc23)c(Cl)c(Cl)n1 [(R)-8-(8-((6-amino-2,3-dichloropyridin-4-yl)thio)-[1,2,4]triazolo[4,3-c]pyrimidin-5-yl)-8-azaspiro[4.5]decan-1-amine] | – | < 100 nM | 20 nM | 750 nM | 100 to 1000 nM | 100 to 1000 nM | 303 nM | – | –
6 | N[C@@H]1CCCCC12CCN(c1ncc(Sc3cccc(Cl)c3Cl)c3nncn13)CC2 [(R)-3-(8-((2,3-dichlorophenyl)thio)-[1,2,4]triazolo[4,3-c]pyrimidin-5-yl)-3-azaspiro[5.5]undecan-7-amine] | – | 100 to 1000 nM | – | – | 1000 to 10000 nM | 1000 to 10000 nM | – | – | –
7 | NCC1CCN(c2ncc(Sc3cccc(Cl)c3Cl)c3nncn23)C1 (stereo not drawn) [(1-(8-((2,3-dichlorophenyl)thio)-[1,2,4]triazolo[4,3-c]pyrimidin-5-yl)pyrrolidin-3-yl)methanamine] | – | 100 to 1000 nM | – | – | 1000 to 10000 nM | 1000 to 10000 nM | – | – | –
8 | COc1nccc(Sc2cnc(N3CCC4(CCC[C@H]4N)CC3)n3ccnc23)c1Cl [(R)-8-(8-((3-chloro-2-methoxypyridin-4-yl)thio)imidazo[1,2-c]pyrimidin-5-yl)-8-azaspiro[4.5]decan-1-amine] | – | < 100 nM | – | – | 100 to 1000 nM | 100 to 1000 nM | – | – | –
9 | CC1C[C@@H](N)C2(CCN(c3ncc(Sc4ccnc(Cl)c4Cl)c4nccn34)CC2)C1 (stereo partly drawn) [(1R)-8-(8-((2,3-dichloropyridin-4-yl)thio)imidazo[1,2-c]pyrimidin-5-yl)-3-methyl-8-azaspiro[4.5]decan-1-amine] | – | < 100 nM | 8 nM | 34 nM | < 100 nM | < 100 nM | 28 nM | – | –
10 | Cc1nccc(Sc2cnc(N3CCC4(CCC[C@H]4N)CC3)n3cnnc23)c1Cl [(R)-8-(8-((3-chloro-2-methylpyridin-4-yl)thio)-[1,2,4]triazolo[4,3-c]pyrimidin-5-yl)-8-azaspiro[4.5]decan-1-amine] | – | < 100 nM | 27 nM | 177 nM | 100 to 1000 nM | 100 to 1000 nM | 232 nM | – | –
11 | N[C@@H]1CCCC12CCN(c1ncc(Sc3ccncc3Cl)c3nncn13)CC2 [(R)-8-(8-((3-chloropyridin-4-yl)thio)-[1,2,4]triazolo[4,3-c]pyrimidin-5-yl)-8-azaspiro[4.5]decan-1-amine] | – | 100 to 1000 nM | 100 nM | 357 nM | 100 to 1000 nM | 100 to 1000 nM | 324 nM | – | –
12 | Nc1cc(Sc2cnc(N3CCC4(CC3)COC[C@H]4N)n3ccnc23)c(Cl)c(Cl)n1 [(S)-8-(8-((6-amino-2,3-dichloropyridin-4-yl)thio)imidazo[1,2-c]pyrimidin-5-yl)-2-oxa-8-azaspiro[4.5]decan-4-amine] | – | < 100 nM | 9 nM | 28 nM | < 100 nM | < 100 nM | 54 nM | – | –
13 | CN(C)c1nccc(Sc2cnc(N3CCC4(CCC[C@H]4N)CC3)n3ccnc23)c1Cl [(R)-8-(8-((3-chloro-2-(dimethylamino)pyridin-4-yl)thio)imidazo[1,2-c]pyrimidin-5-yl)-8-azaspiro[4.5]decan-1-amine] | – | < 100 nM | – | – | 100 to 1000 nM | 100 to 1000 nM | – | – | –
14 | N[C@@H]1CC(O)CC12CCN(c1ncc(Sc3cccc(Cl)c3Cl)c3nccn13)CC2 (stereo partly drawn) | – | < 100 nM | 9 nM | 28 nM | < 100 nM | < 100 nM | 42 nM | – | –
15 | N[C@@H]1COCC12CCN(c1ncc(Sc3cccc(Cl)c3Cl)c3ncnn13)CC2 [(S)-8-(8-((2,3-dichlorophenyl)thio)-[1,2,4]triazolo[1,5-c]pyrimidin-5-yl)-2-oxa-8-azaspiro[4.5]decan-4-amine] | – | 100 to 1000 nM | – | – | 1000 to 10000 nM | 100 to 1000 nM | – | – | –
16 | CC1CCC2(CCN(c3ncc(Sc4cccc(Cl)c4Cl)c4nccn34)CC2)[C@@H]1N (stereo partly drawn) [(1R)-8-(8-((2,3-dichlorophenyl)thio)imidazo[1,2-c]pyrimidin-5-yl)-2-methyl-8-azaspiro[4.5]decan-1-amine] | – | < 100 nM | – | – | 100 to 1000 nM | 100 to 1000 nM | – | – | –
17 | N[C@@H]1CCCC12CCN(c1ncc(Sc3ccnnc3Cl)c3nccn13)CC2 [(R)-8-(8-((3-chloropyridazin-4-yl)thio)imidazo[1,2-c]pyrimidin-5-yl)-8-azaspiro[4.5]decan-1-amine] | – | 100 to 1000 nM | – | – | 100 to 1000 nM | 100 to 1000 nM | – | – | –
18 | C[C@@H]1OCC2(CCN(c3ncc(Sc4cc(N)ncc4Cl)c4nccn34)CC2)[C@@H]1N [(3S,4S)-8-(8-((2-amino-5-chloro-pyridin-4-yl)thio)imidazo[1,2-c]pyrimidin-5-yl)-3-methyl-2-oxa-8-azaspiro[4.5]decan-4-amine] | – | – | 21 nM | 94 nM | < 100 nM | – | 180 nM | – | –
19 | N[C@@H]1CCCC12CCN(c1ncc(Sc3ccccc3Cl)c3nncn13)CC2 [(R)-8-(8-((2-chlorophenyl)thio)-[1,2,4]triazolo[4,3-c]pyrimidin-5-yl)-8-azaspiro[4.5]decan-1-amine] | – | 100 to 1000 nM | 140 nM | 548 nM | 100 to 1000 nM | 100 to 1000 nM | 485 nM | – | –
20 | N[C@@H]1CCCC12CCN(c1ncc(Sc3cccnc3C(F)(F)F)c3nccn13)CC2 [(R)-8-(8-((2-(trifluoromethyl)pyridin-3-yl)thio)imidazo[1,2-c]pyrimidin-5-yl)-8-azaspiro[4.5]decan-1-amine] | – | < 100 nM | – | – | 100 to 1000 nM | 100 to 1000 nM | – | – | –
21 | Cc1nc(N)cc(Sc2cnc(N3CCC4(CC3)COC[C@H]4N)n3ccnc23)c1Cl [(S)-8-(8-((6-amino-3-chloro-2-methyl-pyridin-4-yl)thio)imidazo[1,2-c]pyrimidin-5-yl)-2-oxa-8-azaspiro[4.5]decan-4-amine] | – | < 100 nM | 34 nM | 160 nM | 100 to 1000 nM | 100 to 1000 nM | 340 nM | < 100 nM | –
22 | N[C@@H]1CCCC12CCN(c1ncc(Sc3cccnc3Cl)c3nccn13)CC2 | – | – | – | – | 100 to 1000 nM | 100 to 1000 nM | – | – | –
23 | CC1(N)CCN(c2cnc(-c3cccc(Cl)c3Cl)c(N)n2)CC1 [SHP099, 6-(4-amino-4-methylpiperidin-1-yl)-3-(2,3-dichlorophenyl)pyrazin-2-amine, reference compound] | – | – | – | – | – | – | – | – | 2070 nM
24 | CC1C[C@@H](N)C2(CCN(c3ncc(Sc4cccc(Cl)c4Cl)c4nncn34)CC2)C1 (stereo partly drawn) | < 100 nM | – | – | – | – | – | – | – | –
25 | N[C@@H]1CCOC12CCN(c1ncc(Sc3cccc(Cl)c3Cl)c3nccn13)CC2 [(R)-8-(8-((2,3-dichlorophenyl)thio)imidazo[1,2-c]pyrimidin-5-yl)-1-oxa-8-azaspiro[4.5]decan-4-amine] | – | 100 to 1000 nM | – | – | 100 to 1000 nM | – | – | – | –
